Experimental data reported in patent US20230104936A1, “TRPML MODULATORS” (Casma Therapeutics, Inc., priority 2019, published 2023).

These molecules were tested on TFEB (assay: TFEB nuclear translocation assay, HeLa wt cells). Conditions: Homo sapiens, HeLa, 2 h, 2 hrs compound treatment, Table 1 does not say HeLa wt or TRPML1 KO.
Assay type: cell-based
Procedure, shortened: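 AC50 derived from the ratio of nuclear to perinuclear ring (−5 μm) anti-TFEB immunofluorescence, imaged at ×20 over four fields per well. HeLa wt or TRPML1 KO cells were exposed to compounds for 2 hrs at 37° C, then PFA-fixed and counterstained with Hoechst.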
With `COC1Cc2ccc(S(=O)(=O)Nc3ccccc3N3CCC4(CC3)COC(C)(C)C4)cc2C1` (centres unmarked) [Compound A-659, N-(2-{3,3-dimethyl-2-oxa-8-azaspiro[4.5]decan-8-yl]phenyl)-2-methoxy-2,3-dihydro-1H-indene-5-sulfonamide] the AC50 was 2010 to 8000 nM.
With `CC1(C)CC2(CCN(c3ccccc3NS(=O)(=O)c3ccc(S(C)(=O)=O)c(F)c3)CC2)CO1` [Compound A-660, N-(2-{3,3-dimethyl-2-oxa-8-azaspiro[4.5]decan-8-yl}phenyl)-3-fluoro-4-methanesulfonylbenzene-1-sulfonamide] the AC50 was 8010 to 9990 nM.
`Cc1cc(S(=O)(=O)Nc2ccccc2N2CCC3(CC2)COC(C)(C)C3)ccc1F` [Compound A-661, N-(2-{3,3-dimethyl-2-oxa-8-azaspiro[4.5]decan-8-yl}phenyl)-4-fluoro-3-methylbenzene-1-sulfonamide] gave an AC50 of 2010 to 8000 nM.
In the case of `Cc1ccc(S(=O)(=O)Nc2ccccc2N2CCC3(CC2)COC(C)(C)C3)cc1` [Compound A-662, N-(2-{3,3-dimethyl-2-oxa-8-azaspiro[4.5]decan-8-yl}phenyl)-4-methylbenzene-1-sulfonamide], the AC50 is reported as ≤ 2000 nM.
For `Cc1ccc(CS(=O)(=O)Nc2ccccc2N2CCC3(CC2)COC(C)(C)C3)cc1C` [Compound A-663, N-(2-{3,3-dimethyl-2-oxa-8-azaspiro[4.5]decan-8-yl}phenyl)-1-(3,4-dimethylphenyl)methanesulfonamide], the AC50 was ≤ 2000 nM.
For `Cc1cccc(CS(=O)(=O)Nc2ccccc2N2CCC3(CC2)COC(C)(C)C3)c1` [Compound A-664, N-(2-{3,3-dimethyl-2-oxa-8-azaspiro[4.5]decan-8-yl}phenyl)-1-(3-methylphenyl)methanesulfonamide], the AC50 was ≤ 2000 nM.
`Cc1cccc(S(=O)(=O)Nc2ccccc2N2CCC3(CC2)COC(C)(C)C3)c1` [Compound A-665, N-(2-{3,3-dimethyl-2-oxa-8-azaspiro[4.5]decan-8-yl}phenyl)-3-methylbenzene-1-sulfonamide] showed an AC50 of 2010 to 8000 nM.
Molecule `CC1(C)CC2(CCN(c3ccccc3NS(=O)(=O)c3cnn(C4CCC4)c3)CC2)CO1` [Compound A-666, 1-cyclobutyl-N-(2-{3,3-dimethyl-2-oxa-8-azaspiro[4.5]decan-8-yl}phenyl)-1H-pyrazole-4-sulfonamide] has an AC50 of 2010 to 8000 nM.
Work on `CC1(C)CC2(CCN(c3ccccc3NS(=O)(=O)c3ccc(OC(F)F)c(F)c3)CC2)CO1` [Compound A-667, 4-(difluoromethoxy)-N-(2-{3,3-dimethyl-2-oxa-8-azaspiro[4.5]decan-8-yl}phenyl)-3-fluorobenzene-1-sulfonamide] yielded an AC50 of 2010 to 8000 nM.
`CC1(C)CC2(CCN(c3ccccc3NS(=O)(=O)Cc3cccc(F)c3)CC2)CO1` [Compound A-668, N-(2-{3,3-dimethyl-2-oxa-8-azaspiro[4.5]decan-8-yl}phenyl)-1-(3-fluorophenyl)methanesulfonamide] was tested, and the AC50 was 2010 to 8000 nM.
`CC1(C)CC2(CCN(c3ccccc3NS(=O)(=O)c3cccc(C4CC4)c3)CC2)CO1` [Compound A-669, 3-cyclopropyl-N-(2-{3,3-dimethyl-2-oxa-8-azaspiro[4.5]decan-8-yl}phenyl)benzene-1-sulfonamide] was tested, and the AC50 was ≤ 2000 nM.
In the case of `CC1(C)CC2(CCN(c3ccccc3NS(=O)(=O)c3cccc(C4OCCO4)c3)CC2)CO1` [Compound A-670, N-(2-{3,3-dimethyl-2-oxa-8-azaspiro[4.5]decan-8-yl}phenyl)-3-(1,3-dioxolan-2-yl)benzene-1-sulfonamide], the AC50 is reported as 2010 to 8000 nM.
In the case of `CC1(C)CC2(CCN(c3ccccc3NS(=O)(=O)c3ccc(C(F)F)cc3)CC2)CO1` [Compound A-671, 4-(difluoromethyl)-N-(2-{3,3-dimethyl-2-oxa-8-azaspiro[4.5]decan-8-yl}phenyl)benzene-1-sulfonamide], the AC50 is reported as ≤ 2000 nM.
With `CC1(C)CC2(CCN(c3ccccc3NS(=O)(=O)c3ccc(C4CC4)cc3)CC2)CO1` [Compound A-672, 4-cyclopropyl-N-(2-{3,3-dimethyl-2-oxa-8-azaspiro[4.5]decan-8-yl}phenyl)benzene-1-sulfonamide] the AC50 was ≤ 2000 nM.
With `CC1(C)CC2(CCN(c3ccccc3NS(=O)(=O)c3ccc(OC(F)(F)F)cc3)CC2)CO1` [Compound A-673, N-(2-{3,3-dimethyl-2-oxa-8-azaspiro[4.5]decan-8-yl}phenyl)-4-(trifluoromethoxy)benzene-1-sulfonamide] the AC50 was 2010 to 8000 nM.
In the case of `CC1(C)CC2(CCN(c3ccccc3NS(=O)(=O)c3ccc(C4CC4)s3)CC2)CO1` [Compound A-674, 5-cyclopropyl-N-(2-{3,3-dimethyl-2-oxa-8-azaspiro[4.5]decan-8-yl}phenyl)thiophene-2-sulfonamide], the AC50 is reported as ≤ 2000 nM.
In the case of `CC1(C)CC2(CCN(c3ccccc3NS(=O)(=O)C3=Cc4ccccc4OC3)CC2)CO1` [Compound A-675, N-(2-{3,3-dimethyl-2-oxa-8-azaspiro[4.5]decan-8-yl}phenyl)-2H-chromene-3-sulfonamide], the AC50 is reported as ≤ 2000 nM.
For `CC1(C)CC2(CCN(c3ccccc3NS(=O)(=O)C3=Cc4ccccc4CC3)CC2)CO1` [Compound A-676, N-(2-{3,3-dimethyl-2-oxa-8-azaspiro[4.5]decan-8-yl}phenyl)-3,4-dihydronaphthalene-2-sulfonamide], the AC50 was 2010 to 8000 nM.
For `Cc1ccc(CS(=O)(=O)Nc2ccccc2N2CCC3(CC2)COC(C)(C)C3)cc1F` [Compound A-677, N-(2-{3,3-dimethyl-2-oxa-8-azaspiro[4.5]decan-8-yl}phenyl)-1-(3-fluoro-4-methylphenyl)methanesulfonamide], the AC50 was ≤ 2000 nM.
With `CC1(C)CC2(CCN(c3ccccc3NS(=O)(=O)Cc3cccc(Cl)c3)CC2)CO1` [Compound A-678, 1-(3-chlorophenyl)-N-(2-{3,3-dimethyl-2-oxa-8-azaspiro[4.5]decan-8-yl}phenyl)methanesulfonamide] the AC50 was ≤ 2000 nM.
`Cc1ccc(F)c(CS(=O)(=O)Nc2ccccc2N2CCC3(CC2)COC(C)(C)C3)c1` [Compound A-679, N-(2-{3,3-dimethyl-2-oxa-8-azaspiro[4.5]decan-8-yl}phenyl)-1-(2-fluoro-5-methylphenyl)methanesulfonamide] was tested, and the AC50 was ≤ 2000 nM.
Work on `COCC1(C)CCN(c2ccccc2NS(=O)(=O)Cc2cccc(S(=O)(=O)N(C)C)c2)CC1` [Compound A-680, 3-[({2-[4-(methoxymethyl)-4-methylpiperidin-1-yl]phenyl}sulfamoyl)methyl]-N,N-dimethylbenzene-1-sulfonamide] yielded an AC50 of 8010 to 9990 nM.
With `COCC1(C)CCN(c2c(F)cccc2NS(=O)(=O)c2ccc(S(=O)(=O)N(C)C)cc2)CC1` [Compound A-681, N4-{3-fluoro-2-[4-(methoxymethyl)-4-methylpiperidin-1-yl]phenyl}-N1,N1-dimethylbenzene-1,4-disulfonamide] the AC50 was ≤ 2000 nM.
`COCC1(C)CCN(c2ccccc2NS(=O)(=O)c2ccc3c(c2)COC3(C)C)CC1` [Compound A-682, N-{2-[4-(methoxymethyl)-4-methylpiperidin-1-yl]phenyl}-1,1-dimethyl-1,3-dihydro-2-benzofuran-5-sulfonamide] was tested, and the AC50 was 2010 to 8000 nM.
With `COCC1(C)CCN(c2ccccc2NS(=O)(=O)c2ccc3c(c2)C(C)(C)OC3)CC1` [Compound A-683, N-{2-[4-(methoxymethyl)-4-methylpiperidin-1-yl]phenyl}-3,3-dimethyl-1,3-dihydro-2-benzofuran-5-sulfonamide] the AC50 was 2010 to 8000 nM.
In the case of `COCC1(C)CCN(c2ccccc2NC(c2ccc(S(=O)(=O)N(C)C)cc2)C(F)(F)F)CC1` (centres unmarked) [Compound A-684, N,N-dimethyl-4-(2,2,2-trifluoro-1-((2-(4-(methoxymethyl)-4-methylpiperidin-1-yl)phenyl)amino)ethyl)benzenesulfonamide], the AC50 is reported as 2010 to 8000 nM.
